# Test results taken from US9696323B2, “Biomarkers for chagas disease related cardiomyopathy” (THE BOARD OF REGENTS OF THE UNIVERSITY OF TEXAS SYSTEM, priority 2013, dated 2017).
# Test system: T. cruzi
# Assay: 2D-GE plasma proteome profile (differential protein expression) of T. cruzi-infected rats treated with PBN and/or BZ
# Assay type: in vivo, rat
# Conditions: for expression of inflammation-associated plasma proteins: APOH
# Excerpt: Certain embodiments include biomarkers identified in a previous study. Parasite persistence and oxidative damage in the heart are known to be of pathological significance during Chagas disease (Zacks et al., (2005) An Acad Bras Cienc, 77, 695-715; Gupta et al., (2009) Interdiscip Perspect Infect Dis, 2009, 190354). […] In the previous study the inventors identified 92 proteins that were differentially expressed or oxidized in chagasic plasma. Functional analysis allocated a majority of these proteins to inflammation/immunity and lipid metabolism categories, and to molecular pathways associated with cardiovascular dysfunction, e.g., myocardial infarction, hypertrophy, and fibrosis, and pulmonary embolism and hypertension. Some proteins in chagasic rats treated with PBN and/or BZ were allocated to curative pathways (immune regulation and cardiac remodeling). The 2D-GE results were validated by Western blotting. […] Increased plasma levels of GSN, MYL2, and VIM were directly correlated with the severity of cardiac disease in human chagasic patients. […] These findings have utility in diagnosing disease severity and designing suitable therapy for management of human chagasic patients.
# Ingenuity Pathway Analysis (IPA) is a highly curated and comprehensive software used for the integration of proteins into networks and pathways with biological meaning (Thomas and Bonchev, (2010). Hum Genomics, 4, 353-360). Network analysis of the plasma proteome profile of chagasic rats identified four major sub-networks linked to host response to T. cruzi infection and disease development (Table V). The maximal numbers of the differentially expressed plasma proteins (19 proteins) in chagasic rats were associated with antigen presentation and inflammatory response category (Table V) and indicators of persistent inflammation, known to be of pathological significance in Chagas disease (Dhiman et al., (2009) Clinical and Vaccine Immunology, 16, 660-666; Tanowitz et al., (2009) Prog Cardiovasc Dis, 51, 524-539; Junqueira et al., (2010) Expert Rev Mol Med, 12, e29). Following functional analysis of the inflammation-associated proteins, 12 proteins (APOA1, APOE, C3, CFB, CFH, FGB, GSN, KRT10, PLG, SCG2, SERPINA1, and SERPINC1) were identified as being involved in immune cell trafficking and cell movement of leukocytes, granulocytes, phagocytes, neutrophils, and dendritic and antigen presenting cells. Some of the differentially expressed proteins in inflammation category were associated with activation (APOE, C3, CFH, GC and PLG), chemotaxis (C3, SCG2, SERPINA1, SERPINC1), and infiltration of leukocytes (APOA1, APOE, C3, PLG, KRT10) and neutrophils (C3, CFB, CFH, PLG). Up regulation of APOE, APOA1, APOH, GC and PLG in chagasic plasma was indicative of activation, binding and accumulation of macrophages in the disease state. Of the 19 differentially expressed inflammation-associated proteins, 11 proteins (APOE, C3, CFB, CFH, GSN, KRT10, SCG2, SERPINA1, SERPINC1, GC, and PLG) were carbonylated in chagasic plasma. […] Other proteins (APOE, C3, KRT3, and SCG2) were exposed to oxidation due to T. cruzi-induced, acute oxidative stress, but were normalized in expression and oxidation during the chronic phase.
# Seventeen of the differentially expressed proteins in chagasic plasma, i.e., AFM, C4BPA, CACNA1D, DLGAP2, GC, KNG1, MUG1, MYLPF, MY05A, MY05B, PRPH, PZP, RAI14, and SCG2, were allotted to the lipid metabolism/molecular transport/small molecule biochemistry category (Table V) and functionally linked by IPA network analysis to lipid, fatty acid, and carbohydrate metabolism. A majority of the proteins in this category, i.e., ALB, APOA1, APOA4, APOE, APOH, C3, GC, GNAQ, MY05A, PLG, SCD2, SERPINA1, SERPINC1 and VIM, were linked to the synthesis, metabolism, transport, and modification of lipids and fatty acids, and to uptake and release or efflux of lipids, eicosanoids, and cholesterol. […]
# [1] = plasma, RAP group (acute infection)
compound,measurement,setting,value
CC(C)(C)/[N+]([O-])=C/c1ccccc1 [PBN],expression of inflammation-associated plasma proteins,"acutely infected rats, APOE, CFH, PLG and SCG2",normalized or regulated the expression
same,expression of inflammation-associated plasma proteins,"chronically infected rats, GC, GSN and PLG",normalized or regulated the expression
same,"expression level of CFB, GSN, C3, and SERPINC1",infected rats,partly regulated
same,"Spot# 12, 180 Average Normalized Density × 100,000",[1],21.47
same,"Spot# 34 Average Normalized Density × 100,000",[1],0.37
same,"Spot# 37, 593 Average Normalized Density × 100,000",[1],14.38
same,"Spot# 49, 673 Average Normalized Density × 100,000",[1],19.12
same,"Spot# 52, 54, 302 Average Normalized Density × 100,000",[1],9.80
same,"Spot# 53, 225 Average Normalized Density × 100,000",[1],8.76
same,"Spot# 72 Average Normalized Density × 100,000",[1],18.10
same,"Spot# 73, 705, 787 Average Normalized Density × 100,000",[1],46.94
same,"Spot# 77 Average Normalized Density × 100,000",[1],16.3
same,"Spot# 88 Average Normalized Density × 100,000",[1],74.61
same,"Spot# 94 Average Normalized Density × 100,000",[1],1.84
same,"Spot# 115, 123 Average Normalized Density × 100,000",[1],22.27
same,"Spot# 149 Average Normalized Density × 100,000",[1],0.78
same,"Spot# 153 Average Normalized Density × 100,000",[1],27.07
same,"Spot# 177 Average Normalized Density × 100,000",[1],3.71
same,"Spot# 181 Average Normalized Density × 100,000",[1],3.99
same,"Spot# 184, 257, 328 Average Normalized Density × 100,000",[1],4.54
same,"Spot# 207, 555 Average Normalized Density × 100,000",[1],13.23
same,"Spot# 215 Average Normalized Density × 100,000",[1],1.73
same,"Spot# 266 Average Normalized Density × 100,000",[1],0.75
same,"Spot# 299 Average Normalized Density × 100,000",[1],1.92
same,"Spot# 315 Average Normalized Density × 100,000",[1],6.24
same,"Spot# 334 Average Normalized Density × 100,000",[1],0.61
same,"Spot# 341 Average Normalized Density × 100,000",[1],0.59
same,"Spot# 355, 359 Average Normalized Density × 100,000",[1],2.99
same,"Spot# 382, 385, 378, 572, 578, 595 Average Normalized Density × 100,000",[1],33.76
same,"Spot# 389 Average Normalized Density × 100,000",[1],37.55
same,"Spot# 430 Average Normalized Density × 100,000",[1],22.40
same,"Spot# 434, 678 Average Normalized Density × 100,000",[1],55.14
same,"Spot# 439 Average Normalized Density × 100,000",[1],4.04
same,"Spot# 452 Average Normalized Density × 100,000",[1],18.92
same,"Spot# 464 Average Normalized Density × 100,000",[1],3.89
same,"Spot# 479 Average Normalized Density × 100,000",[1],23.96
same,"Spot# 493 Average Normalized Density × 100,000",[1],9.82
same,"Spot# 515 Average Normalized Density × 100,000",[1],6.87
same,"Spot# 524 Average Normalized Density × 100,000",[1],53.74
same,"Spot# 551, 587, 908 Average Normalized Density × 100,000",[1],88.04
same,"Spot# 559 Average Normalized Density × 100,000",[1],24.39
same,"Spot# 571 Average Normalized Density × 100,000",[1],7.84
same,"Spot# 576, 620 Average Normalized Density × 100,000",[1],18.08
same,"Spot# 586, 614 Average Normalized Density × 100,000",[1],50.44
same,"Spot# 592 Average Normalized Density × 100,000",[1],15.61
same,"Spot# 604 Average Normalized Density × 100,000",[1],22.81
same,"Spot# 606 Average Normalized Density × 100,000",[1],9.60
same,"Spot# 627 Average Normalized Density × 100,000",[1],30.23
same,"Spot# 638 Average Normalized Density × 100,000",[1],4.42
same,"Spot# 649 Average Normalized Density × 100,000",[1],40.69
same,"Spot# 651 Average Normalized Density × 100,000",[1],94.03
same,"Spot# 655 Average Normalized Density × 100,000",[1],240.6
same,"Spot# 672 Average Normalized Density × 100,000",[1],7.34
same,"Spot# 676 Average Normalized Density × 100,000",[1],14.69
same,"Spot# 691 Average Normalized Density × 100,000",[1],49.99
same,"Spot# 715 Average Normalized Density × 100,000",[1],10.83
same,"Spot# 724 Average Normalized Density × 100,000",[1],1.72
same,"Spot# 728 Average Normalized Density × 100,000",[1],0.76
same,"Spot# 733 Average Normalized Density × 100,000",[1],2.24
same,"Spot# 740 Average Normalized Density × 100,000",[1],7.81
same,"Spot# 745 Average Normalized Density × 100,000",[1],4.51
same,"Spot# 749 Average Normalized Density × 100,000",[1],4.71
same,"Spot# 766 Average Normalized Density × 100,000",[1],3.20
same,"Spot# 779, 909 Average Normalized Density × 100,000",[1],5.45
same,"Spot# 796 Average Normalized Density × 100,000",[1],9.97
same,"Spot# 814 Average Normalized Density × 100,000",[1],0.60
same,"Spot# 817 Average Normalized Density × 100,000",[1],12.14
same,"Spot# 820, 1081 Average Normalized Density × 100,000",[1],4.59
same,"Spot# 827 Average Normalized Density × 100,000",[1],17.91
same,"Spot# 832 Average Normalized Density × 100,000",[1],6.23
same,"Spot# 860 Average Normalized Density × 100,000",[1],3.06
same,"Spot# 867 Average Normalized Density × 100,000",[1],2.56
same,"Spot# 881 Average Normalized Density × 100,000",[1],13.92
same,"Spot# 897 Average Normalized Density × 100,000",[1],4.82
same,"Spot# 900 Average Normalized Density × 100,000",[1],25.94
same,"Spot# 906 Average Normalized Density × 100,000",[1],49.40
same,"Spot# 966 Average Normalized Density × 100,000",[1],53.33
